Test results taken from patent US10912767B2, “Anthracycline prodrugs and methods of making and using the same” (THE REGENTS OF THE UNIVERSITY OF COLORADO, priority 2015, dated 2021).
Where two headings read alike, the source gives them in different places.

Tests used:
[1] = Quantum yield of photocleavage, He-Cd laser 325 nm, HPLC; type: physicochemical
Experimental: Initially, measurement of the quantum yield of photodoxazolidine R═H was done in a fully-absorbing solution of photoactive drug in a solution of 90% dimethylacetamide (DMA), 10% water in a 1×1 cm quartz cuvette equipped with a small magnetic stir bar. A stock of photodoxazolidine in DMA was diluted in 9:1 DMA:H2O to a final concentration of 373 μM in a final volume of 3.380 mL. […] The cuvette was placed into the path of an Omnichrome He-Cd laser (single-window power: 10.75 mW at 325 nm using a Scientech laser power meter). The solution was mixed by the stir bar, which was agitated with a magnetic stir plate placed vertically next to the cuvette. Aliquots of 20 μL were removed at times between 0 and 62 min of irradiation and those aliquots were analyzed by HPLC (method 2) for the ratio of dox to photodoxazolidine. The quantum yield was calculated from the ratio of molecules of doxorubicin (dox) formed to photons absorbed.
To allow for better comparison between the quantum yield of photocleavage of photodoxazolidine with the quantum yield for azido-PEG-photodoxazolidine, the measurement was retaken with 50% acetonitrile in water as a solvent. […] Photodoxazolidine (in DMF) was diluted with 30 mL of 50% acetonitrile to a final concentration of 104 μM. The solution was confirmed to be fully absorbing by monitoring the laser power exiting the cell throughout the course of the experiment, which never deviated from 0 mW. As above, the contents of the cell were mixed with a small magnetic stir bar. Aliquots of 50 μL were removed at various times and analyzed as described above. The calculated quantum yield in this solvent system was identical to that measured from the […] system used above.
Concentration of azido-PEG-photodoxazolidine was determined via absorbance (λ=480 nm, ε=11500 M^−1 cm^−1). A sample ([…]) was dissolved in 1 mL of ACN and transferred to a cuvette. A 12.4 mW Omnichrome HeCd was used to irradiate the solution for 30 min at 325 nm. Aliquots of 10 μL were collected at different times and analyzed by HPLC to determine the % Dox in relation to that of azido-PEG-photodoxazolidine. In calculating quantum yield: power (without cuvette)=12.4 mW, (with cuvette)=10.7 mW, incident light=11.55 mW; energy=0.462 J, 7.55×1017 photons; t=40 sec when % Dox=9.2. Experiments were performed in triplicate.
Azido-PEG-photodoxazolidine was irradiated with a 12.4 mW monochromatic laser at 325 nm for 30 min. Aliquots were collected throughout to determine the amount of azido-PEG-photodoxazolidine in relation to released doxorubicin, which was quantified by HPLC. […] The average of triplicate quantum yield experiments was 0.025. This value is in the low end of the quantum yield range, yet is beneficial because it signifies that UV must be applied for longer durations prior to release of the cytotoxic agent. This makes administration of this photo-activated prodrug safer, and its synthesis more practical.

[2] = test system: MDA-MB-231 breast carcinoma cells; experiment: Tumor cell uptake by flow cytometry; type: cell-based, human; settings: 500 nM, 30 min to 4 h, compared against doxorubicin
Experimental: Uptake of the drugs by the cells was measured by flow cytometry. The cells were incubated with 500 nM photodoxazolidine R═H, azido-PEG-photodoxazolidine, or doxorubicin dissolved in 1:1 PBS:serum-free media for between 30 min and 4 h, after which the drug was removed and the cells washed with cold PBS. Cells were trypsinized to a single-cell suspension, rinsed again in cold PBS, and stored on ice for analysis by flow cytometry, monitoring the presence of the anthraquinone fluorophore (channel FL2). Cell populations were gated for intact cells in the side-scatter/forward-scatter plot and 10,000 gated events were scored for each timepoint. The mean fluorescence of the population was compared to the mean fluorescence of 10,000 gated events for an untreated population and the fold increase over background was plotted versus time of drug incubation.
Using MDA-MB-231 breast carcinoma cells, the cellular uptake of photodoxazolidine and azido-PEG-photodoxazolidine was analyzed by flow cytometry and compared against the uptake of doxorubicin.

[3] = test system: NCI/ADR-RES multi-drug resistant ovarian cancer cell line; experiment: Tumor cell growth inhibition, crystal violet (Example 2); type: cell-based; settings: Homo sapiens
From the text: (§1) In order to investigate the photolysis of the drugs in a system amenable to cell culture use, a custom UV irradiation apparatus was constructed, consisting of 3 small blacklight fluorescent bulbs (Southern New England Ultraviolet Co., λmax=350 nm) set between two ring stands and suspended at a height of 11.5 cm. The bulbs' housing was reflective aluminum so as to direct as much UV irradiation as possible downward toward the plate. Upon installation in sterile cell culture hood, the power of the system was measured at approximately 6-7 mW using a Scientech laser power meter. Prior to experimentation, the hood and irradiation apparatus was sterilized with 254 nm germicidal UV irradiation overnight. Using this setup, 100 μM of 4,5-dimethoxy-2-nitrobenyl alcohol (DMNA), photodoxazolidine R═H, and glucose-PEG-photodoxazoldine were irradiated in individual wells of a 24-well plate. Initially, 50 μL of a DMSO stock was diluted with 950 μL of PBS and aliquots of 50 μL were removed at various times (0-180 min), mixing by pipetting each time. The timepoints were analyzed by HPLC (method 2) and plotted as fractional conversion versus time. […] Therefore, a second experiment was performed in which the PBS was replaced with 1:1 acetonitrile:water. With this system of 5% DMSO/47.5% acetonitrile/47.5% water, no visible precipitation was produced over the course of the reaction.
(§2) The ovarian carcinoma line NCl/ADR-RES (ADR) was grown in high-glucose Dulbecco's Modified Eagle Medium (DMEM) supplemented with 10% fetal bovine serum (FBS), 200 units/mL of penicillin and 200 μg/mL of streptomycin. The breast carcinoma line MDA-MB-231 was cultured in low-glucose DMEM with the same additives. Both lines were maintained in a humidified incubator with 5% CO2/95% air at 37° C. UV irradiations were performed with the apparatus described above.
(§3) Growth inhibition experiments were performed by seeding cells into 96-well plates or 24-well plates at densities of 1000-1500 cells per well or 8000 cells per well, respectively, and allowing the cells to adhere overnight. The media was then replaced with a range of aqueous concentrations of the drug in question and allowed to incubate at 37° C. with the cells for a span of time (Inc1) which ranged from 1 min to 48 hours. Irradiation was performed at room temperature with the plate's lid removed and ranged from 1 to 30 min. In some experiments, the drug solution was removed following Inc1 and irradiated in clean media or PBS. Following irradiation, the cells were placed back into the 37° C. incubator for a second period of incubation (Inc2), which varied between 1 min and 24 h, prior to replacement with fresh media. Plates which received no irradiation but identical treatment otherwise were done in parallel. The cells were then grown until the no-drug control wells reached approximately 80% confluence or 5 days, whichever was shorter. […] The cells were fixed with 5% formalin in PBS, stained with crystal violet, washed with tap water, and air-dried. The stain was resolubilized in 50% isopropyl alcohol, 50% H2O containing 2% (w/v) SDS. The staining density was read on a multiwell plate reader at 588-600 nm. Percentage cell density was calculated relative to the irradiated no-drug control wells, plotted as a function of drug concentration, and fit using non-linear least squared analysis with a variable-slope dose response model in GraphPad Prism 5.0 software.
(§4) Although the introduction of a long-pass glass filter between the light source and the plate alleviated this effect to a small extent, a maximum irradiation time of 10 min was settled upon. […] Since a media change at that point would remove the cells as well, the re-adherence of the cell population was accomplished by the addition of a large volume (200 μL) of complete media following Inc2, and overnight incubation. Then, a full media change was done to remove the drug. […]

[4] = test system: MDA-MB-231 breast cancer cells; experiment: as above; type: cell-based, human; settings: Homo sapiens
From the text: as §1, §2, §3, §4

[5] = 37° C., pH 7.4; cited from earlier work
cancer cells = settings: cited from earlier work
[6] = In vivo body weight change as indication of toxicity; design: species or system nude mice; settings: 4 mg/kg dox equivalent iv weekly x6; photodoxazolidine with 18-FDG ip
Experimental: For reconstitution for intravenous injection into mice, dry photodoxazolidine R═H (23 mg) was dissolved in 785 μL of DMSO for a final concentration of 34.5 mM, labeled “Drug Stock,” and stored dark at −20° C. Shortly before injection, the Drug Stock was thawed and 20-50 μL was transferred to a new tube. To this tube, 6 volumes (relative to the Drug Stock volume) of PEG-400 and 4 volumes of propylene glycol (PG) were added and the solution thoroughly mixed by vortexing. Immediately prior to injection, 9 volumes of saline (0.9% NaCl) was added to the DMSO/PEG/PG solution of photodoxazolidine and mixed by vortexing. […] Therefore, this formulation was used as prepared. This protocol produces a final formulation of 5% DMSO, 30% PEG-400, 20% PG, 45% saline. A standard injection of 100 μL of this formulation delivers 4 mg dox equivalent/kg body weight for a mouse weighing 0.025 kg.
Luciferase-positive MDA-MB-231 cells were maintained in MEM culture medium supplemented with 10% heat inactivated fetal bovine serum and 2% penicillin/streptomycin. Prior to injection, typsinized cell populations were counted with a Z1 Coulter Particle counter, centrifuged, and resuspended in Hank's Balanced Salt Solution (HBSS) at a concentration of 4.0×10^7 cells/mL. […] Body weight and tumor growth were measured regularly. Tumor growth was measured optically from the bioluminescence signal from injection of luciferin. […]

COc1cc(C(C)OC(=O)N2CO[C@@H]3[C@H](C)O[C@@H](O[C@H]4C[C@](O)(C(=O)CO)Cc5c(O)c6c(c(O)c54)C(=O)c4c(OC)cccc4C6=O)C[C@@H]32)c([N+](=O)[O-])cc1OCC(=O)NCCOCCOCCOCCN=[N+]=[N-] (mixture of isomers) [Azido-PEG-photodoxazolidine]
quantum yield, fold larger than photodoxazolidine [1]: 5-10 fold | doxorubicin released ([1]; 40 sec irradiation, 12.4 mW laser at 325 nm): 9.2% | quantum yield ([1]; ACN, 325 nm, average of triplicate): 0.025 | quantum yield ([1]; stated as suspected): 0.01-0.02 | cellular uptake (cellular fluorescence) [2]: only marginally improved uptake over doxorubicin | IC50 ([3]; 10 min): 81 ± 7 nM

COc1cccc2c1C(=O)c1c(O)c3c(c(O)c1C2=O)C[C@@](O)(C(=O)CO)C[C@@H]3O[C@H]1C[C@@H]2NCO[C@@H]2[C@H](C)O1 [Doxaz, doxazolidine, reference compound]
IC50 ([4]; MDA-MB-231, 3 h): 5 to 10 nM | half-life [5]: 3 min | IC50 ([3]; 3 h): 3 ± 0.2 nM

COc1cccc2c1C(=O)c1c(O)c3c(c(O)c1C2=O)C[C@@](O)(C(=O)CO)C[C@@H]3OC1CC2C(OCN2CN2COC3C(C)OC(O[C@H]4C[C@](O)(C(=O)CO)Cc5c(O)c6c(c(O)c54)C(=O)c4c(OC)cccc4C6=O)CC32)C(C)O1 (stereo partly shown) [DoxF]
anti-tumor activity, fold above doxorubicin (cancer cells): approximately 100 fold

COc1cccc2c1C(=O)c1c(O)c3c(c(O)c1C2=O)C[C@@](O)(C(=O)CO)C[C@@H]3O[C@H]1C[C@H](N)[C@H](O)[C@H](C)O1 [Dox, doxorubicin, reference compound]
IC50 ([4]; MDA-MB-231, 3 h treatment, read-out: IC50): 360 ± 30 nM | IC50 ([3]; 3 h treatment, read-out: IC50): 10000 nM | body weight change [6]: significant weight loss
